US20100280024A1, “RENIN INHIBITORS” (priority 2007, published 2010)
Counter-ions that a name gives are not always drawn.

Biological target: T1, Renin (Homo sapiens, UniProt P00797)
T1 sequence (P00797 67-406): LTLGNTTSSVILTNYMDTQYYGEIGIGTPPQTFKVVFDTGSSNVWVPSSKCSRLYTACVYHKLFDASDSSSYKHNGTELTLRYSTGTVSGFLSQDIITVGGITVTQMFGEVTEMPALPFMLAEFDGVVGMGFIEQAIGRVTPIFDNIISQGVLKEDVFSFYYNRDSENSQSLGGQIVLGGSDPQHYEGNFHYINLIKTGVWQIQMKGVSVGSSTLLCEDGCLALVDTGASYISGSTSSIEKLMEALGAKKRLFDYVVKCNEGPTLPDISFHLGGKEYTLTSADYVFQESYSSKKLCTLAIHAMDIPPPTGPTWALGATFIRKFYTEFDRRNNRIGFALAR
Assay: In-vitro renin inhibition assay (modified Cayman renin inhibitor screening assay, fluorescence)
Type: biochemical
Design: purchased Cayman 10006270
Conditions: 37° C., 30 mins; for inhibition at 0.1 µM: read-out: Renin inhibition (percent inhibition of renin activity) at 0.1 μM; for inhibition at 1 µM: compound concentration 1 μM, read-out: Renin inhibition (percent inhibition of renin activity) at 1 μM
Description: In-Vitro Renin Inhibition Assay
The enzymatic in vitro assay was performed in 96 well polypropylene plate (Nunc), using a modified Renin inhibitor screening assay protocol (Cayman, cat no: 10006270). The reaction system comprised assay buffer containing 50 mM Tris-HCL, pH=8.0 & 100 mM sodium chloride, human recombinant renin (1:20 diluted with fixed activity), synthetic renin substrates (9.5 μM) and different concentrations of renin inhibitors in DMSO in a total reaction system of 100 μl. The entire incubation mixture were incubated at 37° C. for 30 mins and the fluorescence was read in kinetic mode using excitation wavelengths of 335-345 nm and emission wavelengths of 485-510 nm. Enzyme inhibition was determined by percent inhibition of renin activity.

| Structure (SMILES) | inhibition at 0.1 µM (compound concentration 0.1 μM) [%] | inhibition at 1 µM [%] | Renin inhibition (percent inhibition of renin activity) at 0.1 μM (compound concentration 0.1 μM) |
| --- | --- | --- | --- |
| Cc1cc(Cl)c(OCCOc2ccc(CC(CN)C(=O)N3CCCc4ccccc43)cc2)c(Cl)c1 (stereo not shown) [Example 2, 3-Amino-2-{4-[2-(2,6-dichloro-4-methyl-phenoxy)-ethoxy]-benzyl}-1-(3,4-dihydro-2H-quinolin-1-yl)-propan-1-one] | 90.5 | 97.3 |  |
| Cc1cc(Cl)c(OCCOc2ccc(CC(CN)C(=O)N3CCOc4ccccc43)cc2)c(Cl)c1 (stereo not shown) [Example 4, 3-Amino-2-{4-[2-(2,6-dichloro-4-methyl-phenoxy)-ethoxy]-benzyl}-1-(2,3-dihydro-benzo[1,4]oxazin-4-yl)-propan-1-one] |  | 73.5 |  |
| Cc1cc(Cl)c(OCCOc2ccc(CC(CN)C(=O)N3CCCc4cc(Cl)ccc43)cc2)c(Cl)c1 (stereo not shown) [Example 5, 3-Amino-1-(6-chloro-3,4-dihydro-2H-quinolin-1-yl)-2-{4-[2-(2,6-dichloro-4-methyl-phenoxy)-ethoxy]-benzyl}-propan-1-one] |  | 79.6 |  |
| Cc1cc(Cl)c(OCCOc2ccc(CC(CN)C(=O)N3CCCc4cc(Br)ccc43)cc2)c(Cl)c1 (stereo not shown) [Example 6, 3-Amino-1-(6-bromo-3,4-dihydro-2H-quinolin-1-yl)-2-{4-[2-(2,6-dichloro-4-methyl-phenoxy)-ethoxy]-benzyl}-propan-1-one] |  | 86.5 |  |
| Cc1cc(Cl)c(OCCOc2ccc(CC(CN)C(=O)N3CCCc4ccc(C)c(C)c43)cc2)c(Cl)c1 (stereo not shown) [Example 9, 3-Amino-2-{4-[2-(2,6-dichloro-4-methyl-phenoxy)-ethoxy]-benzyl}-1-(7,8-dimethyl-3,4-dihydro-2H-quinolin-1-yl)-propan-1-one] | 80.5 | 98.1 |  |
| Cc1cc(Cl)c(OCCOc2ccc(CC(CN)C(=O)N3CCCc4cccc(F)c43)cc2)c(Cl)c1 (stereo not shown) [Example 11, 3-Amino-2-{4-[2-(2,6-dichloro-4-methyl-phenoxy)-ethoxy]-benzyl}-1-(8-fluoro-3,4-dihydro-2H-quinolin-1-yl)-propan-1-one] |  | 68.5 |  |
| COc1ccc2c(c1)CCCN2C(=O)C(CN)Cc1ccc(OCCOc2c(Cl)cc(C)cc2Cl)cc1 (stereo not shown) [Example 13, 3-Amino-2-{4-[2-(2,6-dichloro-4-methyl-phenoxy)-ethoxy]-benzyl}-1-(6-methoxy-3,4-dihydro-2H-quinolin-1-yl)-propan-1-one] | 32.1 | 96.5 |  |
| Cc1cc(Cl)c(OCCOc2ccc(CC(CN)C(=O)N3CCCc4cc(Cl)cc(Cl)c43)cc2)c(Cl)c1 (stereo not shown) [Example 14, 3-Amino-1-(6,8-dichloro-3,4-dihydro-2H-quinolin-1-yl)-2-{4-[2-(2,6-dichloro-4-methyl-phenoxy)-ethoxy]-benzyl}-propan-1-one] | 41.8 | 87 |  |
| Cc1cc(Cl)c(OCCOc2ccc(CC(CN)C(=O)N3CCCc4cc(C(F)(F)F)ccc43)cc2)c(Cl)c1 (stereo not shown) [Example 15, 3-Amino-2-{4-[2-(2,6-dichloro-4-methyl-phenoxy)-ethoxy]-benzyl}-1-(6-trifluoromethyl-3,4-dihydro-2H -quinolin-1-yl)-propan-1-one] | 99.2 | 98.7 |  |
| Cc1cc(Cl)c(OCCOc2ccc(CC(CN)C(=O)N3CCCc4cc(C)ccc43)cc2)c(Cl)c1 (stereo not shown) [Example 16, 3-Amino-2-{4-[2-(2,6-dichloro-4-methyl-phenoxy)-ethoxy]-benzyl}-1-(6-methyl-3,4-dihydro-2H-quinolin-1-yl)-propan-1-one] | 52.6 | 87.4 |  |
| COc1cc2c(cc1OC)CN(C(=O)C(CN)Cc1ccc(OCCOc3c(Cl)cc(C)cc3Cl)cc1)CC2 (stereo not shown) [Example 17, 2-Aminomethyl-3-{4-[2-(2,6-dichloro-4-methyl-phenoxy)-ethoxy]-phenyl}-1-(6,7-dimethoxy-3,4-dihydro-1H-isoquinolin-2-yl)-propan-1-one] |  | 53.6 |  |
| Cc1cc(Cl)c(OCCOc2ccc(CC(CN)C(=O)N3CCC(C)CC3)cc2)c(Cl)c1 (stereo not shown) [Example 18, 3-Amino-2-{4-[2-(2,6-dichloro-4-methyl-phenoxy)-ethoxy]-benzyl}-1-(4-methyl-piperidin-1-yl)-propan-1-one] |  | 65.8 |  |
| Cc1cc(Cl)c(OCCOc2ccc(CC(CN)C(=O)N3CCCc4cc(F)ccc43)cc2)c(Cl)c1 (stereo not shown) [Example 20, 3-Amino-2-{4-[2-(2,6-dichloro-4-methyl-phenoxy)-ethoxy]-benzyl}-1-(6-fluoro-3,4-dihydro-2H-quinolin-1-yl)-propan-1-one] | 68 | 96.1 |  |
| Cc1cc(Cl)c(OCCOc2ccc(CC(CN)C(=O)N3CCCC3)cc2)c(Cl)c1 (stereo not shown) [Example 23, 3-Amino-2-{4-[2-(2,6-dichloro-4-methyl-phenoxy)-ethoxy]-benzyl}-1-pyrrolidin-1-yl-propan-1-one] | 59.5 | 81.1 |  |
| Cc1cc(Cl)c(OCCOc2ccc(CC(CN)C(=O)N3CCOCC3)cc2)c(Cl)c1 (stereo not shown) [Example 25, 3-Amino-2-{4-[2-(2,6-dichloro-4-methyl-phenoxy)-ethoxy]-benzyl}-1-morpholin-4-yl-propan-1-one hydrochloride] | 45.1 | 76.4 |  |
| Cc1cc(Cl)c(OCCOc2ccc(CC(CN)C(=O)N3CCCc4cc(OCC(F)(F)F)ccc43)cc2)c(Cl)c1 (stereo not shown) [Example 28, 3-Amino-2-{4-[2-(2,6-dichloro-4-methyl-phenoxy)-ethoxy]-benzyl}-1-[6-(2,2,2-trifluoro-ethoxy)-3,4-dihydro-2H-quinolin-1-yl]-propan-1-one hydrochloride] | 73.8 |  |  |
| COC(=O)[C@H]1CCCN1C(=O)C(CN)Cc1ccc(OCCOc2c(Cl)cc(C)cc2Cl)cc1.Cl (stereo partly drawn) [Example 29, D-(2-Aminomethyl-3-{4-[2-(2,6-dichloro-4-methyl-phenoxy)-ethoxy]-phenyl}-propionyl)-pyrrolidine-2-carboxylic acid methyl ester hydrochloride] |  |  | 90.3 |
| COC1CCCN(C(=O)C(CN)Cc2ccc(OCCOc3c(Cl)cc(C)cc3Cl)cc2)C1 (stereo not shown) [Example 30, 2-Aminomethyl-3-{4-[2-(2,6-dichloro-4-methyl-phenoxy)-ethoxy]-phenyl}-1-(3-methoxy-piperidin-1-yl)-propan-1-one hydrochloride] | 92.8 | 92.9 |  |
| Cc1ccc(OCCOc2ccc(CC(CN)C(=O)N3CCCc4cc(C(F)(F)F)ccc43)cc2)c(Cl)c1 (stereo not shown) [Example 33, 3-Amino-2-{4-[2-(2-chloro-4-methyl-phenoxy)-ethoxy]-benzyl}-1-(6-trifluoromethyl-3,4-dihydro-2H-quinolin-1-yl)-propan-1-one] | 92.9 | 89.2 |  |
| NCC(Cc1ccc(OCCOc2c(F)cccc2F)cc1)C(=O)N1CCCc2cc(C(F)(F)F)ccc21 (stereo not shown) [Example 34, 3-Amino-2-{4-[2-(2,6-difluoro-phenoxy)-ethoxy]-benzyl}-1-(6-trifluoromethyl-3,4-dihydro-2H-quinolin-1-yl)-propan-1-one hydrochloride] | 31.2 |  |  |
| NCC(Cc1ccc(OCCOc2c(F)cccc2F)cc1)C(=O)N1CCCc2cc(F)ccc21 (stereo not shown) [Example 35, 3-Amino-2-{4-[2-(2,6-difluoro-phenoxy)-ethoxy]-benzyl}-1-(6-fluoro-3,4-dihydro-2H-quinolin-1-yl)-propan-1-one hydrochloride] | 26.3 |  |  |
| NCC(Cc1ccc(OCCOc2ccc(F)cc2F)cc1)C(=O)N1CCCc2cc(C(F)(F)F)ccc21 (stereo not shown) [Example 36, 3-Amino-2-{4-[2-(2,4-difluoro-phenoxy)-ethoxy]-benzyl}-1-(6-trifluoromethyl-3,4-dihydro-2H-quinolin-1-yl)-propan-1-one hydrochloride] | 45 |  |  |
| NCC(Cc1ccc(OCCOc2ccc(Cl)cc2Cl)cc1)C(=O)N1CCCc2cc(F)ccc21 (stereo not shown) [Example 37, 3-Amino-2-{4-[2-(2,4-dichloro-phenoxy)-ethoxy]-benzyl}-1-(6-fluoro-3,4-dihydro-2H-quinolin-1-yl)-propan-1-one hydrochloride] | 36.4 |  |  |
| NCC(Cc1ccc(OCCOc2ccc(Cl)cc2Cl)cc1)C(=O)N1CCCc2cc(C(F)(F)F)ccc21 (stereo not shown) [Example 38, 3-Amino-2-{4-[2-(2,4-dichloro-phenoxy)-ethoxy]-benzyl}-1-(6-trifluoromethyl-3,4-dihydro-2H-quinolin-1-yl)-propan-1-one hydrochloride chloride] | 35.4 |  |  |
| NCC(Cc1ccc(OCCOc2ccc(Cl)cc2F)cc1)C(=O)N1CCCc2cc(F)ccc21 (stereo not shown) [Example 39, 3-Amino-2-{4-[2-(4-chloro-2-fluoro-phenoxy)-ethoxy]-benzyl}-1-(6-fluoro-3,4-dihydro-2H-quinolin-1-yl)-propan-1-one hydrochloride] | 36.3 |  |  |
| NCC(Cc1ccc(OCCOc2ccc(Cl)cc2F)cc1)C(=O)N1CCCc2cc(C(F)(F)F)ccc21 (stereo not shown) [Example 40, 3-Amino-2-{4-[2-(4-chloro-2-fluoro-phenoxy)-ethoxy]-benzyl}-1-(6-trifluoromethyl-3,4-dihydro-2H-quinolin-1-yl)-propan-1-one hydrochloride] | 38.9 |  |  |
